The text below walks through data of US8927484B2, “Antiviral compounds” (Gilead Sciences, Inc., priority 2009, dated 2015).

This assay relates to Replicon cells harboring H77 (genotype 1a) or Con1 (genotype 1b) HCV RNA and Renilla luciferase reporter. Nature of the assay: High Throughput Replicon Assay (HTBS). In kind it is cell-based. To be noted: 72 h, read-out: INH @1 μM (Mean). The protocol: High Throughput Replicon Assay (HTBS)
Replicon cells harboring H77 (genotype 1a) or Con1 (genotype 1b) HCV RNA and Renilla luciferase reporter were seeded in 384-well black plates at a density of 1.6×10^3 cells per well in 90 μl of DMEM culture medium, excluding G-418. Compounds were serially diluted in 100% DMSO and added to cells at a 1:225 dilution, achieving a final concentration of 0.44% DMSO in a total volume of 90 μL with a Biotek uFlow Workstation. Cell plates were incubated at 37° C. with 5% CO2 for 3 days, after which culture media were removed and cells were assayed for luciferase activity as a marker for replication level. Luciferase expression was measured using Dual-Glo luciferase assay reagents (Promega, Madison, Wis.). Briefly, 20 μL of Dual-Glo luciferase buffer was added to lyse the cells for 10 min and subsequently 20 μL of a diluted Dual-Glo Stop & Glo substrate (1:100) was added to each well. Luminescence signal was measured on a Perkin Elmer Envision Plate Reader after incubation for 10 minute. Luciferase levels were converted into percentages relative to the untreated controls (defined as 100%) and data were fit to the logistic dose response equation y=a/(1+(x/b)^c) using XLFit4 software (IDBS, Emeryville, Calif.). EC50 values were calculated from the resulting equations.
Background: Replicon systems follow genome replication, usually without infectious particles.
For `C=C[C@@H]1C[C@]1(NC(=O)[C@@H]1C[C@@H](Oc2cc(-c3csc(C(C)C)n3)nc3c(Cl)c(OC)ccc23)[C@H]2CN(C(=O)OC(C)(C)C)[C@H](C(C)(C)C)C(=O)N21)C(=O)NS(=O)(=O)C1CC1` [Example 2], the inhibition at 1 µM is greater than 99%.

On to `C=C[C@@H]1C[C@]1(NC(=O)[C@@H]1C[C@@H](Oc2cc(-c3csc(C(C)C)n3)nc3c(Cl)c(OC)ccc23)[C@H]2CN(C(=O)OC(C)(C)C)[C@H](C(C)(C)C)C(=O)N21)C(=O)NS(=O)(=O)C1(C)CC1` [Example 4], for which the inhibition at 1 µM was greater than 99%.

Take `CC[C@@H]1C[C@]1(NC(=O)[C@@H]1C[C@@H](Oc2cc(-c3nc(C(C)C)cs3)nc3c(Cl)c(OC)ccc23)[C@H]2CN(C(=O)OC(C)(C)C)[C@H](C(C)C)C(=O)N21)C(=O)NS(=O)(=O)C1CC1` [Example 6]: the inhibition at 1 µM was greater than 99%.

Turning to `C=C[C@@H]1C[C@]1(NC(=O)[C@@H]1C[C@@H](Oc2cc(-c3nc(C(C)C)cs3)nc3c(Cl)c(OC)ccc23)[C@H]2CN(C(=O)OC(C)(C)C)[C@H](C(C)C)C(=O)N21)C(=O)NS(=O)(=O)C1CC1` [Example 8], the inhibition at 1 µM was greater than 99%.

With `C=C[C@@H]1C[C@]1(NC(=O)[C@@H]1C[C@@H](Oc2cc(-c3nc(C(C)C)cs3)nc3c(Cl)c(OCCN4CCOCC4)ccc23)[C@H]2CN(C(=O)OC(C)(C)C)[C@H](C(C)C)C(=O)N21)C(=O)NS(=O)(=O)C1CC1` [Example 9], the inhibition at 1 µM is greater than 99%.

With `CC[C@@H]1C[C@]1(NC(=O)[C@@H]1C[C@@H](Oc2cc(-c3nc(C(C)C)cs3)nc3c(Cl)c(OCCN4CCOCC4)ccc23)[C@H]2CN(C(=O)OC(C)(C)C)[C@H](C(C)C)C(=O)N21)C(=O)NS(=O)(=O)C1CC1` [Example 11], the inhibition at 1 µM was greater than 50%.

Take `CC[C@@H]1C[C@]1(NC(=O)[C@@H]1C[C@@H](Oc2cc(-c3nc(C(C)C)cs3)nc3c(Cl)c(OCC(OC)OC)ccc23)[C@H]2CN(C(=O)OC(C)(C)C)[C@H](C(C)C)C(=O)N21)C(=O)NS(=O)(=O)C1CC1` [Example 13]: the inhibition at 1 µM was greater than 99%.

Regarding `C=C[C@@H]1C[C@]1(NC(=O)[C@@H]1C[C@@H](Oc2cc(-c3nc(C(C)C)cs3)nc3c(Cl)c(OCCN4CCOCC4)ccc23)[C@H]2CN(S(C)(=O)=O)[C@H](C(C)C)C(=O)N21)C(=O)NS(=O)(=O)C1CC1` [Example 16], the inhibition at 1 µM was greater than 25%.

With `C=C[C@@H]1C[C@]1(NC(=O)[C@@H]1C[C@@H](Oc2cc(-c3nc(C(C)C)cs3)nc3c(Cl)c(OCCN4CCOCC4)ccc23)[C@H]2CN(C(=O)NC(C)(C)C)[C@H](C(C)C)C(=O)N21)C(=O)NS(=O)(=O)C1CC1` [Example 18], the inhibition at 1 µM is greater than 35%.

As to `C=C[C@@H]1C[C@]1(NC(=O)[C@@H]1C[C@@H](Oc2cc(-c3nc(C(C)C)cs3)nc3c(Cl)c(OCCN4CCOCC4)ccc23)[C@H]2CN(C(=O)CC(C)(C)C)[C@H](C(C)C)C(=O)N21)C(=O)NS(=O)(=O)C1CC1` [Example 19], the inhibition at 1 µM is greater than 55%.

In the case of `C=C[C@@H]1C[C@]1(NC(=O)[C@@H]1C[C@@H](Oc2cc(-c3nc(C(C)C)cs3)nc3c(Cl)c(OCCN4CCOCC4)ccc23)[C@H]2CN(C(=O)OC3CCCC3)[C@H](C(C)C)C(=O)N21)C(=O)NS(=O)(=O)C1CC1` [Example 20], the inhibition at 1 µM was greater than 90%.

Consider `C=C[C@@H]1C[C@]1(NC(=O)[C@@H]1C[C@@H](Oc2cc(-c3cccc(C(C)C)n3)nc3c(Cl)c(OC)ccc23)[C@H]2CN(C(=O)OC(C)(C)C)[C@H](C(C)C)C(=O)N21)C(=O)NS(=O)(=O)C1CC1` [Example 21], for which the inhibition at 1 µM was greater than 99%.

As for `C=C[C@@H]1C[C@]1(NC(=O)[C@@H]1C[C@@H](Oc2cc(-c3nc(C(C)C)cs3)nc3c(Cl)c(OCCOC)ccc23)[C@H]2CN(C(=O)OC(C)(C)C)[C@H](C(C)(C)C)C(=O)N21)C(=O)NS(=O)(=O)C1CC1` [Example 22], the inhibition at 1 µM is greater than 99%.

`C=C[C@@H]1C[C@]1(NC(=O)[C@@H]1C[C@@H](Oc2cc(-c3nc(C(C)C)cs3)nc3c(C)c(OC)ccc23)[C@H]2CN(C(=O)OC(C)(C)C)[C@H](C(C)(C)C)C(=O)N21)C(=O)NS(=O)(=O)C1CC1` [Example 24]: the inhibition at 1 µM was greater than 99%.

In the case of `C=C[C@@H]1C[C@]1(NC(=O)[C@@H]1C[C@@H](Oc2cc(-c3nc(C(C)C)cs3)nc3c(Cl)c(OCCN4CCOCC4)ccc23)[C@H]2CN(C(=O)OC(C)(C)C)[C@H](C(C)(C)C)C(=O)N21)C(=O)NS(=O)(=O)C1CC1` [Example 26], the inhibition at 1 µM is greater than 99%.

`C=C[C@@H]1C[C@]1(NC(=O)[C@@H]1C[C@@H](Oc2cc(-n3ccc(C(C)C)n3)nc3c(Cl)c(OCCN4CCOCC4)ccc23)[C@H]2CN(C(=O)OC(C)(C)C)[C@H](C(C)(C)C)C(=O)N21)C(=O)NS(=O)(=O)C1CC1` [Example 28]: the inhibition at 1 µM is greater than 99%.

`C=C[C@@H]1C[C@]1(NC(=O)[C@@H]1C[C@@H](Oc2cc(-n3ccc(C(C)C)n3)nc3c(Cl)c(OCCN4CCOCC4)ccc23)[C@H]2CN(C(=O)OC(C)(C)C)[C@H](C(C)C)C(=O)N21)C(=O)NS(=O)(=O)C1CC1` [Example 30]: the inhibition at 1 µM was greater than 35%.

With `C=C[C@@H]1C[C@]1(NC(=O)[C@@H]1C[C@@H](Oc2cc(-c3nc(C(C)C)cs3)nc3c(Cl)c(OCCN4CCOCC4)ccc23)[C@H]2CN(C(=O)OC(C)(C)C)[C@H](C(C)(C)OC)C(=O)N21)C(=O)NS(=O)(=O)C1CC1` [Example 34], the inhibition at 1 µM was greater than 95%.

Turning to `C=C[C@@H]1C[C@]1(NC(=O)[C@@H]1C[C@@H](Oc2cc(-c3nc(C(C)C)cs3)nc3c(Cl)c(OCCN4CCOCC4)ccc23)[C@H]2CN(C(=O)OC(C)(C)C)C(=C(C)C)C(=O)N21)C(=O)NS(=O)(=O)C1CC1` [Example 35], the inhibition at 1 µM was greater than 35%.

Regarding `CC[C@@H]1C[C@]1(NC(=O)[C@@H]1C[C@@H](Oc2cc(-c3nc(C(C)C)cs3)nc3c(Cl)c(OCCN4CCOCC4)ccc23)[C@H]2CN(C(=O)OC(C)(C)C)[C@H]([C@H](C)CC)C(=O)N21)C(=O)NS(=O)(=O)C1CC1` [Example 36], the inhibition at 1 µM is greater than 90%.

On to `C=C[C@@H]1C[C@]1(NC(=O)[C@@H]1C[C@@H](Oc2cc(-c3nc(C(C)C)cs3)nc3c(C)c(OC)ccc23)[C@H]2CN(C(=O)OC(C)(C)C)C([C@H](C)CC)C(=O)N21)C(=O)NS(=O)(=O)C1CC1` (stereo partly shown) [Example 38], for which the inhibition at 1 µM is greater than 95%.

For the molecule `C=C[C@@H]1C[C@]1(NC(=O)[C@@H]1C[C@@H](Oc2cc(-c3nc(C(C)C)cs3)nc3c(Cl)c(OCCN4CCOCC4)ccc23)[C@H]2CN(C(=O)OC(C)(C)C)[C@H]([C@@H](C)CC)C(=O)N21)C(=O)NS(=O)(=O)C1CC1` [Example 40], the inhibition at 1 µM was greater than 75%.

For the molecule `CC[C@@H]1C[C@]1(NC(=O)[C@@H]1C[C@@H](Oc2cc(-c3nc(C(C)C)cs3)nc3c(Cl)c(OCCN4CCOCC4)ccc23)[C@H]2CN(C(=O)OC(C)(C)C)[C@H]([C@@H](C)CC)C(=O)N21)C(=O)NS(=O)(=O)C1CC1` [Example 42], the inhibition at 1 µM is greater than 95%.

With `C=C[C@@H]1C[C@]1(NC(=O)[C@@H]1C[C@@H](Oc2cc(-c3cccc(C(C)C)n3)nc3c(Cl)c(OC)ccc23)[C@H]2CN(C(=O)OC(C)(C)C)[C@H](C(C)(C)C)C(=O)N21)C(=O)NS(=O)(=O)C1CC1` [Example 44], the inhibition at 1 µM was greater than 99%.

For the molecule `C=C[C@@H]1C[C@]1(NC(=O)[C@@H]1C[C@@H](Oc2cc(-c3nc(C(C)C)cs3)nc3c(Cl)c(OCCN4CCOCC4)ccc23)[C@H]2CN(C(=O)OC(C)(C)C)[C@H](C(C)C)C(=O)N21)C(=O)NS(=O)(=O)C1(C)CC1` [Example 46], the inhibition at 1 µM was greater than 99%.
